Measured values taken from patent US10973810B2, “Methods for the treatment of neurological disorders” (Yumanity Therapeutics, Inc., priority 2017, dated 2021).

Columns and labels:
[1] = system: ApoE4; assay: ApoE4 Alzheimer's disease yeast model, rescue of toxicity (OD600 growth); type: cell-based, Saccharomyces cerevisiae; conditions: 12-point dose; ApoE4 expression induced
Source text: Strain ApoE-mga2Δ was generated by amplifying 1000 base pairs (bp) upstream and downstream of the MGA2 ORF in a strain in which MGA2 was deleted using a G418 (GENETICIN®) resistance cassette (kanMX) (Piotrowski et al. Proc. Natl. Acad. Sci. USA 112(12):E1490-1497, 2015) and transforming the resulting deletion cassette into the ApoE4 strain in the BY4741 (ATCC 201388) genetic background. The ApoE strain is described, for example, in International Patent Application Publication No. WO 2016/040794, which is incorporated herein by reference in its entirety.
Yeast were cultured using standard techniques in complete synthetic media (CSM) and yeast nitrogen base supplemented with 2% (w/v) carbon source (glucose, raffinose, or galactose) to regulate the expression of the toxic disease protein. An initial starter culture was inoculated in 3 mL CSM-Glucose media and incubated overnight in a 30° C. shaker incubator (225 rpm). Saturated morning cultures were then diluted 1:20 in fresh CSM-Raffinose media and grown for 6 h to an OD600 (optical density) of 0.4-0.8 at 30° C. with shaking. […]
(§1) After yeast delivery, assay plates were incubated under humidified conditions at 30° C. for 24 to 40 h. […] The growth of yeast was monitored by reading the OD600 of each well using a microplate reader (Perkin Elmer EnVision™). […]

[2] = system: yeast; assay: Yeast growth inhibition in control / wild-type condition (OD600); type: cell-based, Saccharomyces cerevisiae; conditions: ApoE4 strain under non-inducing conditions (raffinose); at concentrations just above Emax of rescue
Source text: Strain GMYF was constructed from the ABC16/Green monster strain described in Suzuki et al. Nat. Methods 8(2):159-164, 2011. In this strain, YAP1 was deleted using a HIS3-MX6 cassette, and FLR1 was deleted using a NAT-MX6 cassette using standard methods. The knockout cassettes were PCR-amplified from plasmid templates (see, e.g., Bahler et al. Yeast 14(10):943-951, 1998; Longtine et al. Yeast 14(10):953-961, 1998) and transformed into yeast using lithium acetate-based transformation (Gietz et al. Methods Mol. Biol. 1205:1-12, 2014). The yap1::his3 deletion strain was selected on media lacking histidine and flr1::NAT on plates containing 100 μg/mL nourseothricin. All strains were confirmed by diagnostic PCR. Strain W303 pdr1Δ pdr3Δ was constructed from W303-1A (American Type Culture Collection (ATCC) 208352) by deleting PDR1 and PDR3 with kan-MX6 cassettes separately in MATa and MATa W303a isolates, mating, sporulating, and identifying the double deletion haploids by tetrad dissection and identification of non-parental ditype tetrads. Strain W-erg3 was derived from W303 pdr1 Δ pdr3Δ by deleting SNQ2 with NAT-MX6, YAP1 with HIS3-MX6, and ERG3 with BleMX. […]
as §1

[3] = system: cellular fatty acid desaturase activity (Ole1); assay: Quantitative lipid profiling of treated yeast cells by LC-MS/MS; type: cell-based, Saccharomyces cerevisiae
Method: FIGS. 8A-8D are graphs showing that treatment of yeast cells with the 1,2,4-oxadiazole Compound 2 inhibits lipid desaturation. Exponentially-growing wild-type yeast cells were treated with the indicated doses of the 1,2,4-oxadiazole Compound 2 for the indicated times before cellular lysis, lipid extraction, and analysis by global LC-MS/MS profiling. The relative abundance (fraction of total cellular lipid signal) after 1.5 h and 8 h of the most abundant saturated lipid, phosphatidylcholine 26:0, is depicted in FIGS. 8A and 8B, respectively. The relative abundance after 1.5 h and 8 h drug treatment of the most abundant lipid with 2 or more degrees of unsaturation, phosphatidylcholine 16:1; 18:1, is depicted in FIGS. 8C and 8D, respectively.
Overnight cultures of yeast strain W303 pdr1Δ pdr3Δ were diluted into CSM media with 2% (w/v) raffinose, OD600 0.25, and grown for 4 h before resuspending at an OD600 of 0.2 in CSM media with 2% (w/v) galactose and adding Compound 2 or DMSO at the indicated concentrations. Cells were grown for the indicated timepoints before centrifugation, washing once in PBS, and freezing pellets. Lipids were extracted from pellets by resuspending the pellets in 600 μL methanol, 300 μL water, and 400 μL chloroform, followed by cell lysis by vortexing with glass beads for 1 min. Samples were then centrifuged at 10,000×g for 10 min, and the bottom layer that formed (organic/lipids) was moved into a new tube and evaporated. Samples were then analyzed by LC/MS/MS using a Thermo Scientific Q Exactive™ Orbitrap™ coupled to a Dionex UltiMate® 3000 ultra-high performance liquid chromatography system, following the method described in Tafesse et al. PLoS Pathog. 11(10): e1005188, 2015.

[4] = target: T1, yeast OLE1 (Saccharomyces cerevisiae, UniProt P21147, L450T/T449L); assay: Growth of yeast surviving solely on yeast OLE1; type: cell-based; conditions: 24 h
T1 construct: expressed in transfected cells; host or cells: S. cerevisiae ole1Δ strain (W303 pdr1Δ pdr3Δ background), plasmid pRS316 with TDH3 promoter and CYC1 terminator
T1 sequence (P21147 whole entry T449L/L450T): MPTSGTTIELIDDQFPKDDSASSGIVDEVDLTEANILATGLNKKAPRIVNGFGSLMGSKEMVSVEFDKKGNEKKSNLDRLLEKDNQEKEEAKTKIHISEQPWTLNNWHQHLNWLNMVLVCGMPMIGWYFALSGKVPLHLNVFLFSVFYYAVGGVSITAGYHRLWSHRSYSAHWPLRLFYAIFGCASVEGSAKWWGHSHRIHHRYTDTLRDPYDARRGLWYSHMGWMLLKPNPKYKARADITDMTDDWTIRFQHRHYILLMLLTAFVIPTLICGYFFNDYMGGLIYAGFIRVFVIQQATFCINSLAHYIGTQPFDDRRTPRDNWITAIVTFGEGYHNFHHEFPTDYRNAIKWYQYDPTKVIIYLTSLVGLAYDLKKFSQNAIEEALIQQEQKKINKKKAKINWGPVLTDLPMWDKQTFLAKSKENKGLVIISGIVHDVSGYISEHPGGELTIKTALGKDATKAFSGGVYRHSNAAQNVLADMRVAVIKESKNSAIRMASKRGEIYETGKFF
Source text: (§2) To generate yeast strains expressing SCD1 or SCD5 as the sole desaturase, the human SCD1 and SCD5 genes were cloned from cDNAs (Harvard PlasmID database Clone ID HsCD00340237 for SCD1 and HsCD00342695 for SCD5) into yeast plasmid pRS316 (ATCC 77145) between the yeast TDH3 promoter and the CYC1 terminator. The coding sequence of yeast OLE1 was also cloned into this plasmid). These clones were then transformed into the ole1d strain and plated on CSM-Ura media (CSM lacking uracil) with 2% glucose (w/v) and independent colonies were isolated and amplified.
(§3) For experiments using a plasmid-borne copy of Ole1, SCD1, or SCD5 (FIGS. 3B, 6, and 7), media lacking uracil (SX-Ura, where X is glucose, raffinose, or galactose), was used for all steps of the compound profiling protocol to ensure its maintenance throughout the assay.
(§4) After yeast delivery, assay plates were incubated under humidified conditions at 30° C. for 24 to 40 h. ApoE4 rescue experiments were stopped at 24 h, aSyn experiments at 40 h, Ole1 at 24 h, and SCD1/SCD5 at 40 h. The growth of yeast was monitored by reading the OD600 of each well using a microplate reader (Perkin Elmer EnVision™). For model rescue experiments, raw data were processed by background subtracting and calculating a fold-change relative to DMSO control [(EXP-0.035)/(DMSO-0.035)—where 0.035 is the OD600 contributed by an empty well containing 30 μL of media alone]. For growth inhibition of wild-type cells, raw data were processed by background subtracting and converting values to a percent of the nontreated condition for that strain [(EXP-0.035)/(DMSO-0.035)×100%].

[5] = target: T2, human SCD1 (Homo sapiens, UniProt O00767); assay: Growth of humanized yeast surviving solely on human SCD1; type: cell-based; conditions: for half-maximal inhibitory concentration (IC50), SCD1 humanized strain: growth inhibition
T2 construct: host or cells: S. cerevisiae ole1Δ strain (W303 pdr1Δ pdr3Δ background), plasmid pRS316 with TDH3 promoter and CYC1 terminator
T2 sequence (O00767 1-359): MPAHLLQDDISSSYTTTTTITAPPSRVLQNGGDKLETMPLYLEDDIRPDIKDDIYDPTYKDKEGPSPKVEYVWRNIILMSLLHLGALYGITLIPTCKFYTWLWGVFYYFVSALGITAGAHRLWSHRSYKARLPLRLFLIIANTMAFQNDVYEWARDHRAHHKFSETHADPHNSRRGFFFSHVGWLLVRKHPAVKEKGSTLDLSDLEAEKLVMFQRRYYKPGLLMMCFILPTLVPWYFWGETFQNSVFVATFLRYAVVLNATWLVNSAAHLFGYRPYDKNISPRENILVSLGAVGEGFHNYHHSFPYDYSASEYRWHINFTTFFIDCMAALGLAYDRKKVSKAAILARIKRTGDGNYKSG
Source text: The coding sequence of yeast OLE1 was also cloned into this plasmid). These clones were then transformed into the ole1d strain and plated on CSM-Ura media (CSM lacking uracil) with 2% glucose (w/v) and independent colonies were isolated and amplified.
as §3
After yeast delivery, assay plates were incubated under humidified conditions at 30° C. for 24 to 40 h. ApoE4 rescue experiments were stopped at 24 h, aSyn experiments at 40 h, Ole1 at 24 h, and SCD1/SCD5 at 40 h. The growth of yeast was monitored by reading the OD600 of each well using a microplate reader (Perkin Elmer EnVision™).

[6] = target: T3, human SCD5 (Homo sapiens, UniProt Q86SK9); assay: Growth of humanized yeast surviving solely on human SCD5; type: cell-based; conditions: for half-maximal inhibitory concentration (IC50), SCD5 humanized strain: growth inhibition
T3 construct: host or cells: S. cerevisiae ole1Δ strain (W303 pdr1Δ pdr3Δ background), plasmid pRS316 with TDH3 promoter and CYC1 terminator
T3 sequence (Q86SK9 1-330): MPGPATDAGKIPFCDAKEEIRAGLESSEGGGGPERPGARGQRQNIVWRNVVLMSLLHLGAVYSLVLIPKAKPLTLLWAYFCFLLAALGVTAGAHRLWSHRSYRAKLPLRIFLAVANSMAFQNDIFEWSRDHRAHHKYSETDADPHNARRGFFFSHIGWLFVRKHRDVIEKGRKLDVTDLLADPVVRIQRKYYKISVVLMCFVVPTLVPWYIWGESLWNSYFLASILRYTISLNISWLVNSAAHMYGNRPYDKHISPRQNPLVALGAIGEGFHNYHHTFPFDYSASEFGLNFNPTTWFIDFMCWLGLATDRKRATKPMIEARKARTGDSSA
Source text: as §2, §3, §4

Compound: COc1ccc(-c2noc(C3CCN(C(=O)CNC(=O)c4ccccc4)CC3)n2)cc1OC [Compound 1, N-(2-(4-(3-(3,4-dimethoxyphenyl)-1,2,4-oxadiazol-5-yl)piperidin-1-yl)-2-oxoethyl)benzamide]
- rescue in ApoE4 model, dose-response curve (raw OD600) [1]: bell-shaped dose-response curve
- growth in control condition [2]: growth decreased

Compound: Cc1nn(C)c2cc(-c3noc(C4CCN(C(=O)CNC(=O)c5ccccc5)CC4)n3)ccc12 [Compound 2, N-(2-(4-(3-(1,3-dimethyl-1H-indazol-6-yl)-1,2,4-oxadiazol-5-yl)piperidin-1-yl)-2-oxoethyl)benzamide]
- lipid desaturation in yeast cells [3]: inhibited lipid desaturation
- decrease in abundance of unsaturated lipid phosphatidylcholine 16:1, 18:1 ([3]; 8 h treatment, wild-type yeast): > 12 fold
- increase in abundance of saturated lipid phosphatidylcholine 26:0 ([3]; after 8 h treatment, wild-type yeast): > 300 fold

Compound: CNC(=O)c1cccc(NC(=O)N2CCC(Oc3ccccc3Cl)CC2)c1 [Compound A939572]
- growth of yeast strain expressing Ole1 (percent of DMSO-treated condition) [4]: resistant
- half-maximal inhibitory concentration (IC50), SCD1 humanized strain [5]: low nanomolar
- half-maximal inhibitory concentration (IC50), SCD5 humanized strain [6]: low nanomolar

Compound: C[C@@H]1C[C@@H]([C@H](O)CC2CC(=O)NC(=O)C2)C(=O)[C@@H](C)C1 [Cyclohexamide]
- growth of yeast strain expressing Ole1 (percent of DMSO-treated condition) [4]: inhibited growth of all three strains with the same potency
- growth of SCD1-expressing yeast (percent of DMSO-treated condition) ([5]; 40 h): inhibited growth of all three strains with the same potency
- growth of SCD5-expressing yeast (percent of DMSO-treated condition) ([6]; 40 h): inhibited growth of all three strains with the same potency

Compound: Cc1nnc(-c2ccc(N3CCC(Oc4ccccc4C(F)(F)F)CC3)nn2)s1 [MF-438]
- growth of yeast strain expressing Ole1 (percent of DMSO-treated condition) [4]: resistant
- half-maximal inhibitory concentration (IC50), SCD1 humanized strain [5]: low nanomolar
- half-maximal inhibitory concentration (IC50), SCD5 humanized strain [6]: low nanomolar

Compound: O=C(O)Cn1nnc(-c2cc(N3CCC(Oc4cc(F)ccc4Br)CC3)no2)n1 [MK-8245]
- growth of yeast strain expressing Ole1 (percent of DMSO-treated condition) [4]: resistant
- half-maximal inhibitory concentration (IC50), SCD5 humanized strain [6]: low nanomolar
